{"source": "paper PMC7556816", "about": "“Structural and mechanistic analysis of ATPase inhibitors targeting mycobacterial DNA gyrase” (Journal of Antimicrobial Chemotherapy, 2020)", "key": {"[1]": {"system": "M. smegmatis 4x03863 Mutant 4", "assay": "microbe, parasite or virus in culture", "assay_type": "cell-based", "settings": "Mycolicibacterium smegmatis, read-out: MIC100"}, "[2]": {"system": "M. smegmatis 4x03863 Mutant 3", "assay": "microbe, parasite or virus in culture", "assay_type": "cell-based", "settings": "Mycolicibacterium smegmatis, read-out: MIC100"}, "[3]": {"system": "M. smegmatis 4x03863 Mutant 1", "assay": "microbe, parasite or virus in culture", "assay_type": "cell-based", "settings": "Mycolicibacterium smegmatis, read-out: MIC100"}, "M. smegmatis ATCC 19420": {"system": "M. smegmatis ATCC 19420", "assay": "Antibacterial testing, broth microdilution (CLSI)", "assay_type": "cell-based, Mycobacterium smegmatis", "settings": "Mycolicibacterium smegmatis", "method": "(§1) Antibacterial testing was performed for Acinetobacter baumannii NCTC 13420, E. coli ATCC 25922, M. smegmatis ATCC 19420, Pseudomonas aeruginosa ATCC 27853 and Staphylococcus aureus ATCC 29213, using the broth microdilution method under CLSI guidelines[19] (Table 1). The agar dilution method was additionally performed for M. smegmatis under EUCAST guidelines.[20]"}, "E. coli ATCC 25922": {"system": "E. coli ATCC 25922", "assay": "Antibacterial testing, broth microdilution (CLSI)", "assay_type": "cell-based", "settings": "Escherichia coli", "method": "as §1"}, "E. coli 2x03863 Mutant": {"system": "E. coli 2x03863 Mutant", "assay": "microbe, parasite or virus in culture", "assay_type": "cell-based", "settings": "Escherichia coli, read-out: MIC100"}, "A. baumannii NCTC 13420": {"system": "A. baumannii NCTC 13420", "assay": "Antibacterial testing, broth microdilution (CLSI)", "assay_type": "cell-based", "settings": "Acinetobacter baumannii, NCTC13420", "method": "as §1"}, "S. aureus ATCC 29213": {"system": "S. aureus ATCC 29213", "assay": "Antibacterial testing, broth microdilution (CLSI)", "assay_type": "cell-based", "settings": "Staphylococcus aureus, ATCC29213", "method": "as §1"}, "P. aeruginosa ATCC 27853": {"system": "P. aeruginosa ATCC 27853", "assay": "Antibacterial testing, broth microdilution (CLSI)", "assay_type": "cell-based", "settings": "Pseudomonas aeruginosa, ATCC27853", "method": "as §1"}, "M. tuberculosis gyrase [4]": {"molecular_target": "T1, M. tuberculosis gyrase (Mycobacterium tuberculosis, UniProt P9WG45)", "T1 construct": "Both the GyrB and GyrBA constructs were altered by deleting the N-terminal 40 amino acids; made in house", "assay": "DNA cleavage assay (cleavage complex stabilisation)", "assay_type": "biochemical", "settings": "20 nM gyrase, 1% DMSO", "method": "Figure S1. […] DNA cleavage assays were carried out as previously described;^11 these are essentially the same as supercoiling assays, except that the reactions are terminated by the addition of SDS and proteinase K, and incubated for a further 30 mins at 37°C. Samples contained 20 nM gyrase and 1% DMSO, except where indicated, and Moxifloxacin, Redx03863 or Redx04739, as indicated. Agarose gels (1%) were run in the presence of 0.5 µg/mL ethidium bromide. – indicates no gyrase; + and all other lanes contain gyrase. nc = nicked circular DNA; l = linear; cc = closed circular."}, "[5]": {"system": "M. smegmatis 4x03863 Mutant 2 (GyrB Gly83Ser)"}, "M. tuberculosis gyrase [6]": {"molecular_target": "T1, M. tuberculosis gyrase", "assay": "biochemical", "settings": "74 nM of each gyrase subunit, 1% DMSO; read-out: IC50 (apparent), gyrase supercoiling"}, "[7]": {"molecular_target": "T2, M. tuberculosis GyrBA fusion protein (Mycobacterium tuberculosis, UniProt P9WG45+P9WG47)", "T2 construct": "Both the GyrB and GyrBA constructs were altered by deleting the N-terminal 40 amino acids; made in house; host or cells: E. coli Rosetta 2 (pLysS)", "assay": "biochemical"}, "M. tuberculosis gyrase [8]": {"molecular_target": "T1, M. tuberculosis gyrase", "assay": "ATP-independent relaxation of supercoiled DNA", "assay_type": "biochemical", "settings": "absence of ATP", "excerpt": "In the presence of FQs, gyrase can cleave DNA due to the cleavage complex being stabilized.[35]"}, "[9]": {"settings": "M. smegmatis ATCC19420 (WT), read-out: MIC100"}, "[10]": {"settings": "E. coli ATCC25922 (WT), read-out: MIC100"}, "[11]": {"settings": "ATCC25922, E. coli ATCC 25922, broth microdilution, read-out: MIC"}, "[12]": {"settings": "ATCC19420, M. smegmatis ATCC 19420, broth microdilution, read-out: MIC"}, "[13]": {"settings": "GyrBA fusion protein at 200 nM, linear pBR322 DNA 20 μg/mL, read-out: apparent IC50, gyrase ATPase activity"}, "[14]": {"settings": "gyrase 200 nM, IC50 lower than this not determinable, read-out: IC50, gyrase ATPase reaction"}}, "note": "Read-outs that look alike come from different tables or passages of the source."}
{"smiles": "NNC(=O)c1ccncc1", "note": "[Isoniazid]", "values": [{"measurement": "MIC", "setting": "[1]", "result": 32, "unit": "µg/mL"}, {"measurement": "MIC", "setting": "[2]", "result": 16, "unit": "µg/mL"}, {"measurement": "MIC", "setting": "[3]", "result": 32, "unit": "µg/mL"}, {"measurement": "MIC", "setting": "M. smegmatis ATCC 19420; [9]", "result": 32, "unit": "µg/mL"}]}
{"smiles": "COc1c(N2C[C@@H]3CCCN[C@@H]3C2)c(F)cc2c(=O)c(C(=O)O)cn(C3CC3)c12", "note": "[Moxifloxacin, reference compound]", "values": [{"measurement": "MIC", "setting": "[1]", "result": "< 0.125", "unit": "µg/mL"}, {"measurement": "MIC", "setting": "[2]", "result": "< 0.125", "unit": "µg/mL"}, {"measurement": "MIC", "setting": "E. coli ATCC 25922; [10]", "result": 0.016, "unit": "µg/mL"}, {"measurement": "MIC", "setting": "E. coli 2x03863 Mutant", "result": 0.016, "unit": "µg/mL"}, {"measurement": "MIC", "setting": "[3]", "result": "< 0.125", "unit": "µg/mL"}, {"measurement": "MIC", "setting": "M. smegmatis ATCC 19420; [9]", "result": 0.125, "unit": "µg/mL"}]}
{"smiles": "CNc1cc(F)cc2c1[nH]c1nc(Oc3cnc(C)nc3)nc(N3C[C@@H]4[C@@H](N)[C@@H]4C3)c12", "note": "[Redx03863]", "values": [{"measurement": "MIC", "setting": "[1]", "result": 0.25, "unit": "µg/mL"}, {"measurement": "MIC", "setting": "[2]", "result": 0.125, "unit": "µg/mL"}, {"measurement": "MIC", "setting": "A. baumannii NCTC 13420", "result": 0.031, "unit": "µg/mL"}, {"measurement": "MIC", "setting": "E. coli ATCC 25922; [11]", "result": 0.016, "unit": "µg/mL"}, {"measurement": "MIC", "setting": "E. coli ATCC 25922; [10]", "result": 0.016, "unit": "µg/mL"}, {"measurement": "MIC", "setting": "S. aureus ATCC 29213", "result": 0.125, "unit": "µg/mL"}, {"measurement": "MIC", "setting": "P. aeruginosa ATCC 27853", "result": 4, "unit": "µg/mL"}, {"measurement": "MIC", "setting": "E. coli 2x03863 Mutant", "result": 32, "unit": "µg/mL"}, {"measurement": "stabilization of the cleavage complex", "setting": "M. tuberculosis gyrase [4]", "result": "did not stabilize the cleavage complex"}, {"measurement": "MIC", "setting": "[3]", "result": 0.25, "unit": "µg/mL"}, {"measurement": "MIC", "setting": "M. smegmatis ATCC 19420; [12]", "result": 0.016, "unit": "µg/mL"}, {"measurement": "MIC", "setting": "M. smegmatis ATCC 19420; [9]", "result": 0.016, "unit": "µg/mL"}, {"measurement": "increase in resistance of mutant strain", "setting": "[5]", "result": 16, "unit": "fold"}, {"measurement": "IC50", "setting": "M. tuberculosis gyrase [6]", "result": 9, "unit": "nM"}, {"measurement": "IC50", "setting": "[7]; [13]", "result": 170, "unit": "nM"}, {"measurement": "IC50", "setting": "[7]; [14]", "result": "~200", "unit": "nM"}, {"measurement": "inhibition of relaxation of supercoiled DNA", "setting": "M. tuberculosis gyrase [8]", "result": "did not inhibit"}]}
{"smiles": "CNc1cc(F)cc2c1[nH]c1nc(CNC(=O)c3cnco3)nc(N3CCC(N)C3)c12", "note": "(centres unmarked) [Redx04739]", "values": [{"measurement": "MIC", "setting": "[1]", "result": 2, "unit": "µg/mL"}, {"measurement": "MIC", "setting": "[2]", "result": 4, "unit": "µg/mL"}, {"measurement": "MIC", "setting": "A. baumannii NCTC 13420", "result": 64, "unit": "µg/mL"}, {"measurement": "MIC", "setting": "E. coli ATCC 25922; [11]", "result": 8, "unit": "µg/mL"}, {"measurement": "MIC", "setting": "E. coli ATCC 25922; [10]", "result": 8, "unit": "µg/mL"}, {"measurement": "MIC", "setting": "S. aureus ATCC 29213", "result": 8, "unit": "µg/mL"}, {"measurement": "MIC", "setting": "P. aeruginosa ATCC 27853", "result": 32, "unit": "µg/mL"}, {"measurement": "MIC", "setting": "E. coli 2x03863 Mutant", "result": "> 64", "unit": "µg/mL"}, {"measurement": "stabilization of the cleavage complex", "setting": "M. tuberculosis gyrase [4]", "result": "did not stabilize the cleavage complex"}, {"measurement": "MIC", "setting": "[3]", "result": 4, "unit": "µg/mL"}, {"measurement": "MIC", "setting": "M. smegmatis ATCC 19420; [12]", "result": 0.25, "unit": "µg/mL"}, {"measurement": "MIC", "setting": "M. smegmatis ATCC 19420; [9]", "result": 0.5, "unit": "µg/mL"}, {"measurement": "increase in resistance of mutant strain", "setting": "[5]", "result": 8, "unit": "fold"}, {"measurement": "IC50", "setting": "M. tuberculosis gyrase [6]", "result": 30, "unit": "nM"}, {"measurement": "IC50", "setting": "[7]; [13]", "result": 210, "unit": "nM"}, {"measurement": "IC50", "setting": "[7]; [14]", "result": "~200", "unit": "nM"}, {"measurement": "inhibition of relaxation of supercoiled DNA", "setting": "M. tuberculosis gyrase [8]", "result": "did not inhibit"}]}
{"smiles": "CO[C@@H]1[C@@H](OC(N)=O)[C@@H](O)[C@H](Oc2ccc3c(O)c(NC(=O)c4ccc(O)c(CC=C(C)C)c4)c(=O)oc3c2C)OC1(C)C", "note": "[novobiocin, reference compound]", "values": [{"measurement": "MIC", "setting": "[1]", "result": 4, "unit": "µg/mL"}, {"measurement": "MIC", "setting": "[2]", "result": 8, "unit": "µg/mL"}, {"measurement": "MIC", "setting": "E. coli ATCC 25922; [10]", "result": 64, "unit": "µg/mL"}, {"measurement": "MIC", "setting": "E. coli 2x03863 Mutant", "result": 0.5, "unit": "µg/mL"}, {"measurement": "MIC", "setting": "[3]", "result": 4, "unit": "µg/mL"}, {"measurement": "MIC", "setting": "M. smegmatis ATCC 19420; [9]", "result": 2, "unit": "µg/mL"}]}
